# Measurements taken from publication PMC5025650, “Comparison of research methods for functional characterization of insect olfactory receptors” (Scientific Reports, 2016).
# Experiments:
# [1] = biological target: T1, HassOR13/HassOrco (Helicoverpa assulta, UniProt A0A0B4ZYC6); assay: two-electrode voltage clamp, Xenopus oocytes; type: cell-based; settings: weak agonist; with HassOrco; holding potential −80 mV; pH 7.6
# T1 construct: gene OR13; called heterodimer; with Odorant receptor coreceptor
# T1 sequence (A0A0B4ZYC6 1-425): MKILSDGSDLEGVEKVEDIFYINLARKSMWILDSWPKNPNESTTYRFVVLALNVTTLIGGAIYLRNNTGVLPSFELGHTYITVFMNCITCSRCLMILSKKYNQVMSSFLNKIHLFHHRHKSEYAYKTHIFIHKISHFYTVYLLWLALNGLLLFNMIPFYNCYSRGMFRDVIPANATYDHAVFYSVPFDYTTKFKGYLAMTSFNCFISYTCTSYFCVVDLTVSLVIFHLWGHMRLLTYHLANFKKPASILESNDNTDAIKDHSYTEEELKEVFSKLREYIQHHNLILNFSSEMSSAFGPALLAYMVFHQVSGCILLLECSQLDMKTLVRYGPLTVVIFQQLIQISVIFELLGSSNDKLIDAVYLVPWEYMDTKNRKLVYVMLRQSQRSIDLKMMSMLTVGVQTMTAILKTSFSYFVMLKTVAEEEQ
# T1 sequence (A7UGE1 1-473 partner): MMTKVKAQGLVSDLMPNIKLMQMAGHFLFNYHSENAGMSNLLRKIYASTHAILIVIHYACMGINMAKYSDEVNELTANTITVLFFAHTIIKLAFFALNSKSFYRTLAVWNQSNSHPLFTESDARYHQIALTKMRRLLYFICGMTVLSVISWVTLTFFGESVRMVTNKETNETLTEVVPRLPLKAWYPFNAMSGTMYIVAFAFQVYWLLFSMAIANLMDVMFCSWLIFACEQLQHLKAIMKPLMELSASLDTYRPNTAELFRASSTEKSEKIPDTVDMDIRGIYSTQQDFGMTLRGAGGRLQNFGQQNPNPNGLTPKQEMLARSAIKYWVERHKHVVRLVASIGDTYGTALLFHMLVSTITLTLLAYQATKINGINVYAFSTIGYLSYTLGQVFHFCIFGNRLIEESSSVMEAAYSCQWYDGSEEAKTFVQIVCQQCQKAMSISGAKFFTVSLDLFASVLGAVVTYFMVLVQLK
# [2] = biological target: T1, HassOR13/HassOrco; assay: two-electrode voltage clamp, Xenopus oocytes; type: cell-based
SMILES,current at 10^-4 M [1],EC50 [2]
"CCCCCC/C=C\CCCCCCCC=O [Z9-16:Ald, (Z)-9-hexadecenal]",72 ± 13 nA,–
"CCCC/C=C\CCCCCCCC=O [Z9-14:Ald, (Z)-9-tetradecenal]",31 ± 8 nA,–
"CCCC/C=C\CCCCCCCCCC=O [Z11-16:Ald, (Z)-11-hexadecenal]",–,68.4 µM
